Consider 13 molecules from patent publication US11559536B2, “Compositions and methods for the treatment of inflammation in urological pathology” (Duke University, priority 2019, dated 2023).

Data set [1] relates to caspase-1 (inflammasome activation) in urothelial cells. The experiment in a line: Caspase-1 activity in isolated mouse urothelial cells treated with diabetic DAMPS in vitro. The following applies: DAMP 24 h (ATP 1 h).
Data set [2] deals with BOO. The experiment in a line: Open field assay after BOO. The data set is classed as in vivo, rat. The following applies: 12 weeks of BOO; glyburide pellet; fluoxetine ≈20 mg/kg/day in drinking water, last 4 weeks.
For data set [3], the system named is BOO. The experiment in a line: Sucrose preference assay after BOO. The data set is classed as in vivo, rat. The following applies: 12 weeks of BOO; glyburide pellet; fluoxetine ≈20 mg/kg/day in drinking water, last 4 weeks.
Data set [4] concerns caspase-1 activation in urothelial cells. The experiment in a line: Caspase-1 assay in isolated rat urothelial cells treated with stone DAMPs, with or without inhibitors. Particulars: for maximal response of caspase-1 activation: normalized to 1.25 mM ATP 1 h; for concentration sufficient to completely suppress caspase-1 activation in MSU-treated cells: 1.25 μg/mL MSU 24 h.
Method: Briefly, rats were sacrificed and the bladders removed and placed in sterile PBS. Bladders were then inverted over an 18-gauge blunt tip needle, inflated with PBS, and a purse string suture was used to tie off the bladder. The inflated bladder was then submerged in Collagenase P (1 mg/ml in complete media) and shaken for 1 hour at 37° C. […] Media was removed and replaced with fresh media (90 μL for agonist studies, 80 μL for inhibitor studies) just prior to the start of experimental treatments.
Using PBS (for CPPD) or complete media (for MSU), 1:2 serial dilutions were prepared. Wells were then treated with 10 μL of the appropriate dilution of stone DAMP for a final volume of 100 μL. After treatment, cells were incubated for another 24 hours at 37° C.
For inhibition response studies, the general ROS scavenger N-acetylcysteine was prepared to the stock concentration of 5 mM for MSU treatment and to 50 mM for CPPD treatment. Prior to treatment, the stock concentration of NAC was buffered to pH 7.2. […] Using complete media for NAC and PBS for Verapamil, 1:2 serial dilutions were prepared. Cells were treated with 10 μL of NAC or Verapamil and incubated at 37° C. for 1 or 4 hours, respectively. […] Plates were then incubated for an additional 24 hours at 37° C.
Briefly, media was removed and cells lysed in 50 μl lysis buffer (10 mM MgCl2 and 0.25% Igepal CA-630) for 5 minutes. An additional 50 μL of storage buffer (40 mM HEPES (pH 7.4), 20 mM NaCl, 2 mM EDTA and 20% glycerol) was added, and the plates frozen at −80° C. until use (>30 minutes). […] Plates were then incubated in the dark for 1 hour at 37° C. with mild shaking. Florescence was then measured (excitation 400 nm, emission 505 nm).
The conditions of data set [5]: cited from earlier work.
Data set [6] concerns BOO. The experiment in a line: Evans blue assay in hippocampus after BOO. The data set is classed as in vivo, rat. The method, then: (§1) Sides were alternated thereafter.
Rats were weighed and then injected (i.v. 3 ml/kg) with 2% Evan's blue dye in sterile saline by an investigator blinded to the groups (Belayev et al. (1996) Brain Res 739: 88-96). After one hour, rats were euthanized and transcardially perfused with cold PBS to remove intravascular dye. The brain was isolated and the hippocampus dissected, weighed and placed into formamide (0.25 ml) overnight (56° C.). Absorbance (620 nm) was measured and compared to a standard curve to calculate pg Evans blue/μg tissue.

For data set [7], the system named is BOO. The experiment in a line: Density of activated microglia (IbA1/AIF1) in hippocampus after BOO. Type of data set: in vivo, rat. Particulars: 12 weeks of BOO; glyburide pellet. Here is the method: as §1
(§2) Brains were fixed (10% neutral buffered formalin; 48 h, rt) and grossly cut (coronally) to the hippocampus before being embedded in paraffin with the plane of the hippocampus on the block face. Citrate antigen retrieval was used prior to staining 10 μm coronal sections with anti-IbA1/AIF1 (1:500) (NBP2-19019; Novus Biologicals, Centennial, Colo.) or Anti-Ki67 (1:500) (ab15580; Abcam, Cambridge, Mass.) via standardard methodology. IbA1 was visualized via HRP development (Vectastain ABC Kit; Vector, Burlingame, Calif.), biotinylated secondary antibody provided). Ki-67 was visualized using a goat anti-rabbit secondary antibody conjugated to Alexa Fluor 488 (111-545-144; Jackson ImmunoResearch Labs, West Grove, Pa.). […]
(§3) A Zeiss Axio Imager 2 microscope (Zeiss, Oberkochen, Germany) running Zen software (Zeiss) using the tiling and stitching feature was used to scan one entire hemisphere. […] Slides were quantitated by a researcher blinded to the groups. For microglia, we demarcated 600,000-700,000 μm^2 of the fascia dentata, counted the number of black/brown spots with two or greater associated tendrils and calculated microglial density. For Ki-67^+ cells we demarcated the entire dentate gyrus, CA1, CA2 and CA3 regions, quantitated nuclei (DAPI^+) that were Ki-67^+ (green florescence) and calculated the density.

For data set [8], the system named is BOO. The experiment in a line: Density of Ki-67+ proliferating cells in hippocampus after BOO. Particulars: 12 weeks of BOO; glyburide pellet. The data set is classed as in vivo, rat. The method, then:
as §1, §2, §3

For data set [9] the following is noted: cited from earlier work. The source holds these as a separate data set.
For data set [10], the system named is BOO. The experiment in a line: Bladder weight after bladder outlet obstruction (BOO). The following applies: 12 weeks of BOO; glyburide 50 mg 21-day slow release pellet.
Method: For most studies rats were assigned to 4 groups; 1) Control, 2) Sham, 3) BOO or 4) BOO+glyburide (Gly). […] For Sham and all BOO groups, animals were anesthetized [ketamine hydrochloride (90 mg/kg), xylazine (10 mg/kg); i.p.] and a 1 mm o.d. catheter (P50 tubing) inserted transurethrally. BOO was created by urethral ligation over a 1 mm catheter. A 5-0 silk suture was passed around the urethra and tied securely for BOO and loosely for Sham. The catheter was removed and the abdominal wall closed. For BOO+Gly, a subcutaneous pocket was made on the side of the neck and a single 50 mg, 21-day slow release pellet (Innovative Research of America, Sarasota, Fla.) inserted and the incision closed. A new pellet was placed (contralateral side) after 21 days. Sides were alternated thereafter.
Bladders from the various groups indicated in FIG. 18 were weighed when they were removed for the various endpoints in this experiment.

Take `Nc1ncnc2c1ncn2[C@@H]1O[C@H](COP(=O)(O)OP(=O)(O)OP(=O)(O)O)[C@@H](O)[C@H]1O` [ATP]: in [1], the “caspase-1 activity (inflammasome activation)” value (“caspase-1 activity” for short) is reported as “elicited a classic dose response”.
On to `CN(N=O)C(=O)N[C@H]1C(O)O[C@H](CO)[C@@H](O)[C@@H]1O` (mixture of isomers) [streptozotocin], for which the “caspase-1 activity” value in data set [1] is “directly activates the inflammasome”.
The same measure, in the same setting: the value for `CCCCCCCCCCCCC/C=C/[C@@H](O)[C@H](CO)NC(=O)CCCCC` [C6-ceramide, N-hexanoyl-D-erythro-sphingosine] was “activation of caspase-1”.
With `CNCCC(Oc1ccc(C(F)(F)F)cc1)c1ccccc1` (stereo not shown) [fluoxetine], in the data set on BOO [2], the “open field: time exploring the middle of the field” value is “restored the exploratory behavior of these rats back to levels not statistically different from control”. For the same molecule, the sucrose preference entry in the data set on BOO [3] is “restored sucrose preference back to levels not statistically different from control”.
On to AGES, for which the “caspase-1 activity” value in data set [1] was “activation of caspase-1”.
For the molecule `O=c1[nH]c(=O)c2[nH]c([O-])nc2[nH]1.[Na+]` [MSU, monosodium urate], in [1], the “caspase-1 activity” value is on record as “activation of caspase-1”. The “EC50 of caspase-1 activation” value in data set [4] (24 h treatment of rat urothelial cells) stood at 0.156 µg/mL. Moreover, in data set [4] (24 h treatment), the “maximal response of caspase-1 activation” value is 25 % of the ATP response.
Consider `O=S(=O)([O-])CCS.[Na+]` [Mesna, 2-mercaptoethane sulfonate sodium], for which the “effects on bone marrow, hepatic, renal or CNS function” value in data set [5] (doses up to 100 mg/kg) is reported as “no apparent effects on bone marrow, hepatic, renal or CNS function”. In addition, the fate in plasma result in data set [5] (only a very small portion remaining in circulation) is recorded as “rapid oxidation in plasma”.
For the molecule `O=P([O-])([O-])OP(=O)([O-])[O-].[Ca+2].[Ca+2]` [CPPD, calcium pyrophosphate], in data set [4] (24 h treatment), the “maximal response of caspase-1 activation” value is “approximately 50 % of the ATP response”. Besides, in data set [4] (Rattus norvegicus, 24 h, read-out: EC50 of caspase-1 activation), the EC50 came to 62.5 µg/mL.
In the case of `CC(=O)N[C@@H](CS)C(=O)O` [NAC, N-acetylcysteine], the “concentration sufficient to completely suppress caspase-1 activation in MSU-treated cells” value in data set [4] is 500 µM. The “concentration sufficient to completely suppress caspase-1 activation in CPPD-treated cells” value in data set [4] (62.5 μg/mL CPPD 24 h, NAC 1 h before) was 5 mM.
Take `COc1ccc(Cl)cc1C(=O)NCCc1ccc(S(=O)(=O)NC(=O)NC2CCCCC2)cc1` [GLY, glyburide]: the “Evan's blue dye extravasation in the hippocampus” value in the data set on BOO [6] (6 weeks of BOO, glyburide treatment) is listed as “blocked”. Further, in the data set with BOO [6] (12 weeks of BOO, glyburide pellet), the “leakage of Evan's blue into the hippocampus” value is listed as “reduced back to control levels”. In addition, the “density of activated microglia in the hippocampus” value in the data set on BOO [7] is “reduced back to control levels”. Further, the “concentration of proliferating cells (Ki-67+) in the hippocampus” value in the data set on BOO [8] was “blocked”. Also, the “open field: time exploring the middle of the field” value with BOO [2] was “restored this behavior”. Besides, the sucrose preference result in the data set on BOO [3] is reported as “restored”. For the same molecule, in [9] (intact barrier), the “crossing of the blood brain barrier” value is reported as “does not cross the blood brain barrier”. In addition, the “binding in the serum” value in [9] (serum) is given as “mostly albumin-bound”. Also, the bladder weight result with BOO [10] is given as “suppresses this increase”.
Take `COc1ccc(CCN(C)CCCC(C#N)(c2ccc(OC)c(OC)c2)C(C)C)cc1OC` (stereo not shown) [Verapamil]: in [4], the “concentration sufficient to completely suppress caspase-1 activation in MSU-treated cells” value was determined as 150 µM. For the same molecule, in data set [4] (Rattus norvegicus, read-out: IC50 of caspase-1 activation in CPPD-treated cells), the IC50 came out at 100 µM.
As to `O=C([O-])C(=O)[O-].[Ca+2]` [calcium oxalate], the “caspase-1 activation in urothelial cells” value in [4] (24 h treatment) is on record as “activates caspase-1 in urothelial cells in a dose-dependent manner”.

B1: HMGB-1: high mobility group box 1 protein (ProSci), diabetic DAMP (protein, UniProt P09429 1-215, looked up)
High mobility group protein B1: MGKGDPKKPRGKMSSYAFFVQTCREEHKKKHPDASVNFSEFSKKCSERWKTMSAKEKGKFEDMAKADKARYEREMKTYIPPKGETKKKFKDPNAPKRPPSAFFLFCSEYRPKIKGEHPGLSIGDVAKKLGEMWNNTAADDKQPYEKKAAKLKEKYEKDIAAYRAKGKPDAAKKGVVKAEKSKKKKEEEEDEEDEEDEEEEEDEEDEDEEEDDDDE
Turning to B1, the “caspase-1 activity” value in [1] is “activation of caspase-1”.
